Measurements: ChEMBL document CHEMBL1909046, “DrugMatrix in vitro pharmacology data”

Biological target: Insulin receptor (Rattus norvegicus, UniProt P15127); note: in other assays of this panel Not Active means under 50% inhibition at 10 µM
Test: not given
Type: cell membranes, Wistar, Liver, Membrane
Conditions: not given

Chain of Insulin receptor (P15127 27-759 limits assumed): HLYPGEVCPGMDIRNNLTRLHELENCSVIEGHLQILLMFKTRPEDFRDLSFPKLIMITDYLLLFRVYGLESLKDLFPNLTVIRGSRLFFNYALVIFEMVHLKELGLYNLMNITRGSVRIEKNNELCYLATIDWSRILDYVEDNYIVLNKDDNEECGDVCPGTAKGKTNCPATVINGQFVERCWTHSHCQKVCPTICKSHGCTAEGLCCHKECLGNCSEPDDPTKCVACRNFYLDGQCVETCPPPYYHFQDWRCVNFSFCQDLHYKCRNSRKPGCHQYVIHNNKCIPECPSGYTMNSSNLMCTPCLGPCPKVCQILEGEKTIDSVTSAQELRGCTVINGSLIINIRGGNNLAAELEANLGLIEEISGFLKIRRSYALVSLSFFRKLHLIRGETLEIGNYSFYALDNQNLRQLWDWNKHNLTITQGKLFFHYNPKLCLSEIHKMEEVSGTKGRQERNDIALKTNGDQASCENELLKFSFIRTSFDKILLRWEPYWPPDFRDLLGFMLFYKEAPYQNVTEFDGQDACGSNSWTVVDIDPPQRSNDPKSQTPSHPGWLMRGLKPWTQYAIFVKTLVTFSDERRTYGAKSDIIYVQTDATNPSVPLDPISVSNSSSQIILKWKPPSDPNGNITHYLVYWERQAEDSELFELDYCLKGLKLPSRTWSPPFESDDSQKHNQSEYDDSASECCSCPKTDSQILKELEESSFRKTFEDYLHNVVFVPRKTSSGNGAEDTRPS
Chain of Insulin receptor (P15127 764-1383 limits assumed): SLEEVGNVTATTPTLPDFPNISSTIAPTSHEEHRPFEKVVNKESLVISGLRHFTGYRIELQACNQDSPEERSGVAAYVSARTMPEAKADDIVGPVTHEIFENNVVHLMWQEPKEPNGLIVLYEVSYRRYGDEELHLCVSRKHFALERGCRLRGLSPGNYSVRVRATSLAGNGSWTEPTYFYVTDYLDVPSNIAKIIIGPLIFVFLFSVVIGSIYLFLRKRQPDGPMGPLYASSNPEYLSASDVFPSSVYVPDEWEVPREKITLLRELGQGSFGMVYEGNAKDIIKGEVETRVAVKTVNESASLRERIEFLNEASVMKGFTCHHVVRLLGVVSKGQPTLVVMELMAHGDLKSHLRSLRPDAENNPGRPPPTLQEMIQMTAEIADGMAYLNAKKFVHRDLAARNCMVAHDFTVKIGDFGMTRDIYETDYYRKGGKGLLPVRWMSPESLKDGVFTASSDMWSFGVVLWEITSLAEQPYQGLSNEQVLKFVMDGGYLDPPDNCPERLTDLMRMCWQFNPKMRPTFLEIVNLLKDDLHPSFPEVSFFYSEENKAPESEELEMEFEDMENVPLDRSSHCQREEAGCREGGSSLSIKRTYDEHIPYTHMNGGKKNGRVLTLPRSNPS

SMILES | IC50
CCN1CC(CCN2CCOCC2)C(c2ccccc2)(c2ccccc2)C1=O (configuration not stated) [DOXAPRAM] | Not Active
Cn1c(=O)c2c(ncn2CC2OCCO2)n(C)c1=O [DOXOFYLLINE] | Not Active
C[C@]12CC[C@@H]3c4ccc(OC(=O)c5ccccc5)cc4CC[C@H]3[C@@H]1CC[C@@H]2O [ESTRADIOL BENZOATE] | Not Active
C[C@]12CC[C@@H]3c4ccc(O)cc4CC[C@H]3[C@@H]1CC[C@@H]2O [ESTRADIOL] | Not Active
CC[C@@H](CO)NCCN[C@@H](CC)CO [ETHAMBUTOL] | Not Active
NC(=O)NO [HYDROXYUREA] | Not Active
Nc1ccn([C@@H]2CS[C@H](CO)O2)c(=O)n1 [LAMIVUDINE] | Not Active
COc1ccc2cc([C@H](C)C(=O)O)ccc2c1 [NAPROXEN] | Not Active

Test system: not listed separately
Test: DRUGMATRIX: Phosphodiesterase PDE3 enzyme inhibition (substrate: [3H]cAMP + cAMP)
Type: tissue-based, Homo sapiens
Conditions: platelet; Not Active = under 50% inhibition at 10 µM

SMILES | IC50 | Ki
CCN1CC(CCN2CCOCC2)C(c2ccccc2)(c2ccccc2)C1=O (configuration not stated) [DOXAPRAM] | Not Active | Not Active
Cn1c(=O)c2c(ncn2CC2OCCO2)n(C)c1=O [DOXOFYLLINE] | Not Active | Not Active
C[C@]12CC[C@@H]3c4ccc(OC(=O)c5ccccc5)cc4CC[C@H]3[C@@H]1CC[C@@H]2O [ESTRADIOL BENZOATE] | Not Active | Not Active
C[C@]12CC[C@@H]3c4ccc(O)cc4CC[C@H]3[C@@H]1CC[C@@H]2O [ESTRADIOL] | Not Active | Not Active
CC[C@@H](CO)NCCN[C@@H](CC)CO [ETHAMBUTOL] | Not Active | Not Active
NC(=O)NO [HYDROXYUREA] | Not Active | Not Active
Nc1ccn([C@@H]2CS[C@H](CO)O2)c(=O)n1 [LAMIVUDINE] | Not Active | Not Active

Biological target: T1, Receptor-type tyrosine-protein phosphatase C (Homo sapiens, UniProt P08575);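 note: inhibition of CD45 enzyme activity measured using DiFMUP as substrate; in other assays of this panel Not Active means under 50% inhibition at 10 µM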
T1 sequence (P08575 whole entry): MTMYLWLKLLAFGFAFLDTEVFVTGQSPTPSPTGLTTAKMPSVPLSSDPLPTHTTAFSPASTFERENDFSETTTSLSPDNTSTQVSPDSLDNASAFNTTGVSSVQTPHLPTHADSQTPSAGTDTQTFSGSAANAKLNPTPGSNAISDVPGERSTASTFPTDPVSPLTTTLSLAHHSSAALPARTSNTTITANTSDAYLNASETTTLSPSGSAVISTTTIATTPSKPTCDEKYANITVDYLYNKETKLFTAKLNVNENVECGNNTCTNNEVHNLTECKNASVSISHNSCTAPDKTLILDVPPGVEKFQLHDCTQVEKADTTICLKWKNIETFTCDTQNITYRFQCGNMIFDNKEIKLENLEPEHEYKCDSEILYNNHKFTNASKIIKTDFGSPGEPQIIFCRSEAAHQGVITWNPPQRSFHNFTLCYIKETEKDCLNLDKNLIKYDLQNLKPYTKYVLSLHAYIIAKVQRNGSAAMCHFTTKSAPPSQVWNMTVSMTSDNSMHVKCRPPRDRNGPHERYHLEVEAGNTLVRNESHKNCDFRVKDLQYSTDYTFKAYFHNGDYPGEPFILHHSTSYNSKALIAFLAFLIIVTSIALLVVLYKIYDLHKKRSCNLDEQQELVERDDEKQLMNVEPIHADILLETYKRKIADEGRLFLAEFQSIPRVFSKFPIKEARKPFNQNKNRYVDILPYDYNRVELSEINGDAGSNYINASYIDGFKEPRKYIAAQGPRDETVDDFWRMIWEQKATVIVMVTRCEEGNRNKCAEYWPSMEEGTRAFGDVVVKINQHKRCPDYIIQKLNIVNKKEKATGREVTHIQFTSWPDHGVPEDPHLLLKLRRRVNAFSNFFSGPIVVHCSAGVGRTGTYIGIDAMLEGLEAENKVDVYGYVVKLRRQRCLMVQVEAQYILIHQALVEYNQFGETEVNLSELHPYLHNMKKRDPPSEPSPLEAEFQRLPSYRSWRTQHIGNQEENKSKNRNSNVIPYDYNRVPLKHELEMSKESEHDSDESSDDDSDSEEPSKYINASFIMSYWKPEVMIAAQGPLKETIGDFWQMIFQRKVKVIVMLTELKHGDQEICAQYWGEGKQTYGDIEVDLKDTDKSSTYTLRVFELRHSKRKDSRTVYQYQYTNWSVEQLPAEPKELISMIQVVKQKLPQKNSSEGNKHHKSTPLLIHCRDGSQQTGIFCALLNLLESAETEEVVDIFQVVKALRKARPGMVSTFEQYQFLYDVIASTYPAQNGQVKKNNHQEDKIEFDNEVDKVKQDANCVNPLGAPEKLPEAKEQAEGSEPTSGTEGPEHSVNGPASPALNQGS
Test: not given
Set-up: species or system Escherichia coli
Conditions: not given

SMILES | IC50
CCN1CC(CCN2CCOCC2)C(c2ccccc2)(c2ccccc2)C1=O (configuration not stated) [DOXAPRAM] | Not Active
Cn1c(=O)c2c(ncn2CC2OCCO2)n(C)c1=O [DOXOFYLLINE] | Not Active
C[C@]12CC[C@@H]3c4ccc(OC(=O)c5ccccc5)cc4CC[C@H]3[C@@H]1CC[C@@H]2O [ESTRADIOL BENZOATE] | Not Active
C[C@]12CC[C@@H]3c4ccc(O)cc4CC[C@H]3[C@@H]1CC[C@@H]2O [ESTRADIOL] | Not Active
CC[C@@H](CO)NCCN[C@@H](CC)CO [ETHAMBUTOL] | Not Active
NC(=O)NO [HYDROXYUREA] | Not Active
Nc1ccn([C@@H]2CS[C@H](CO)O2)c(=O)n1 [LAMIVUDINE] | Not Active
COc1ccc2cc([C@H](C)C(=O)O)ccc2c1 [NAPROXEN] | Not Active

Test system: not listed separately
Test: DRUGMATRIX: GABAA, Chloride Channel, TBOB radioligand binding (ligand: [3H] TBOB)
Type: cell membranes, Rattus norvegicus, Wistar, Cerebral cortex, Membrane
Conditions: Not Active = under 50% inhibition at 10 µM

SMILES | IC50 | Ki
CCN1CC(CCN2CCOCC2)C(c2ccccc2)(c2ccccc2)C1=O (configuration not stated) [DOXAPRAM] | Not Active | Not Active
Cn1c(=O)c2c(ncn2CC2OCCO2)n(C)c1=O [DOXOFYLLINE] | Not Active | Not Active
C[C@]12CC[C@@H]3c4ccc(OC(=O)c5ccccc5)cc4CC[C@H]3[C@@H]1CC[C@@H]2O [ESTRADIOL BENZOATE] | Not Active | Not Active
C[C@]12CC[C@@H]3c4ccc(O)cc4CC[C@H]3[C@@H]1CC[C@@H]2O [ESTRADIOL] | Not Active | Not Active
CC[C@@H](CO)NCCN[C@@H](CC)CO [ETHAMBUTOL] | Not Active | Not Active
NC(=O)NO [HYDROXYUREA] | Not Active | Not Active
Nc1ccn([C@@H]2CS[C@H](CO)O2)c(=O)n1 [LAMIVUDINE] | Not Active | Not Active
COc1ccc2cc([C@H](C)C(=O)O)ccc2c1 [NAPROXEN] | Not Active | Not Active

Biological target: Melanocortin receptor 4 (Homo sapiens, UniProt P32245); note: in other assays of this panel Not Active means under 50% inhibition at 10 µM
Sequence (P32245 whole entry): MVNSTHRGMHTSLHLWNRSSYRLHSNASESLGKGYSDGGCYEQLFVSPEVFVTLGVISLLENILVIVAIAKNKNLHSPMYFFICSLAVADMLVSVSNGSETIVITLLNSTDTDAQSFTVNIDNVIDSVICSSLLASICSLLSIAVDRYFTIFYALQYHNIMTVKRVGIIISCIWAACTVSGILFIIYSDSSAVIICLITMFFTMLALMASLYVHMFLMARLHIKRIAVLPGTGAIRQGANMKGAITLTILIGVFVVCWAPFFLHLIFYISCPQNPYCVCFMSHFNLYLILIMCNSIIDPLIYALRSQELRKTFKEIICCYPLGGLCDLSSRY
Test: not given
Type: cell membranes, Membrane
Conditions: hek293

SMILES | IC50
CCN1CC(CCN2CCOCC2)C(c2ccccc2)(c2ccccc2)C1=O (configuration not stated) [DOXAPRAM] | Not Active
Cn1c(=O)c2c(ncn2CC2OCCO2)n(C)c1=O [DOXOFYLLINE] | Not Active
C[C@]12CC[C@@H]3c4ccc(OC(=O)c5ccccc5)cc4CC[C@H]3[C@@H]1CC[C@@H]2O [ESTRADIOL BENZOATE] | Not Active
C[C@]12CC[C@@H]3c4ccc(O)cc4CC[C@H]3[C@@H]1CC[C@@H]2O [ESTRADIOL] | Not Active
CC[C@@H](CO)NCCN[C@@H](CC)CO [ETHAMBUTOL] | Not Active
NC(=O)NO [HYDROXYUREA] | Not Active
Nc1ccn([C@@H]2CS[C@H](CO)O2)c(=O)n1 [LAMIVUDINE] | Not Active
COc1ccc2cc([C@H](C)C(=O)O)ccc2c1 [NAPROXEN] | Not Active

Biological target: Receptor tyrosine-protein kinase erbB-2 (Homo sapiens, UniProt P04626);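 note: inhibition of HER2 kinase enzyme activity, measured with Poly(Glu:Tyr) as the phosphorylation substrate; in other assays of this panel Not Active means under 50% inhibition at 10 µM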
Sequence (P04626 whole entry): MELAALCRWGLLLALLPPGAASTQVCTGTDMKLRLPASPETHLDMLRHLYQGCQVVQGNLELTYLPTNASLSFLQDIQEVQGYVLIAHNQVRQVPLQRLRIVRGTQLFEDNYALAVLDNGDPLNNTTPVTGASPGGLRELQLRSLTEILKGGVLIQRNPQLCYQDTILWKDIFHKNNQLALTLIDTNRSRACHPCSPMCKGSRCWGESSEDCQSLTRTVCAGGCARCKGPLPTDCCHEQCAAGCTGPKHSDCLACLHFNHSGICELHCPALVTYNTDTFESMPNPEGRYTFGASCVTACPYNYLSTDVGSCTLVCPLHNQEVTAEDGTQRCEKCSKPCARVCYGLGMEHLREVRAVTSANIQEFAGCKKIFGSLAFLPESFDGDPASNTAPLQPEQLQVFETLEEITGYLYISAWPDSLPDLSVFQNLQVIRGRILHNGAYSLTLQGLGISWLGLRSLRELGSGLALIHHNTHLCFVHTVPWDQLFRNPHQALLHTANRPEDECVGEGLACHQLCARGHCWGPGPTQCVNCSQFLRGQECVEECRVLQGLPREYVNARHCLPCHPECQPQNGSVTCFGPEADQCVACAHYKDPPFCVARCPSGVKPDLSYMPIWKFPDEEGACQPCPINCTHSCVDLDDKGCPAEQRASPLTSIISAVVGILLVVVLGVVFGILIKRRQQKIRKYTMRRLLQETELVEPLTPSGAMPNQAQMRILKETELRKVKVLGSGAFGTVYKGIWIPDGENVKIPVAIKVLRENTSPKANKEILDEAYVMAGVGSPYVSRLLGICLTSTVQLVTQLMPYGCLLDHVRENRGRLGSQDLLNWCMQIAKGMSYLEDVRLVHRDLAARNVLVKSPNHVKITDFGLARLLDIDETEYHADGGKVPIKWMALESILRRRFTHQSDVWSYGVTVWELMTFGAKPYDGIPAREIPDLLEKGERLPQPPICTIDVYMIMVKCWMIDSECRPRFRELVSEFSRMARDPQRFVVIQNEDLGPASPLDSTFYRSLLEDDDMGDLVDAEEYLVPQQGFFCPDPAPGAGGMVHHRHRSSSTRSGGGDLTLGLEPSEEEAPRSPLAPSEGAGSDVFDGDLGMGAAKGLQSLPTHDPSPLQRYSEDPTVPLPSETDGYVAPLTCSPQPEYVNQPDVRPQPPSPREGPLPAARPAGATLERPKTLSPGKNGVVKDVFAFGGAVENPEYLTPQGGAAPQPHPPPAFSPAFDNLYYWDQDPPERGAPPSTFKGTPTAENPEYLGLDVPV
Test: biochemical
Type: cell-based, Insect cells
Conditions: insect cells

SMILES | IC50
CCN1CC(CCN2CCOCC2)C(c2ccccc2)(c2ccccc2)C1=O (configuration not stated) [DOXAPRAM] | Not Active
Cn1c(=O)c2c(ncn2CC2OCCO2)n(C)c1=O [DOXOFYLLINE] | Not Active
C[C@]12CC[C@@H]3c4ccc(OC(=O)c5ccccc5)cc4CC[C@H]3[C@@H]1CC[C@@H]2O [ESTRADIOL BENZOATE] | Not Active
C[C@]12CC[C@@H]3c4ccc(O)cc4CC[C@H]3[C@@H]1CC[C@@H]2O [ESTRADIOL] | Not Active
CC[C@@H](CO)NCCN[C@@H](CC)CO [ETHAMBUTOL] | Not Active
NC(=O)NO [HYDROXYUREA] | Not Active
Nc1ccn([C@@H]2CS[C@H](CO)O2)c(=O)n1 [LAMIVUDINE] | Not Active
COc1ccc2cc([C@H](C)C(=O)O)ccc2c1 [NAPROXEN] | Not Active

Biological target: T2, C-X-C chemokine receptor type 2 (Homo sapiens, UniProt P25025); note: in other assays of this panel Not Active means under 50% inhibition at 10 µM
T2 sequence (P25025 whole entry): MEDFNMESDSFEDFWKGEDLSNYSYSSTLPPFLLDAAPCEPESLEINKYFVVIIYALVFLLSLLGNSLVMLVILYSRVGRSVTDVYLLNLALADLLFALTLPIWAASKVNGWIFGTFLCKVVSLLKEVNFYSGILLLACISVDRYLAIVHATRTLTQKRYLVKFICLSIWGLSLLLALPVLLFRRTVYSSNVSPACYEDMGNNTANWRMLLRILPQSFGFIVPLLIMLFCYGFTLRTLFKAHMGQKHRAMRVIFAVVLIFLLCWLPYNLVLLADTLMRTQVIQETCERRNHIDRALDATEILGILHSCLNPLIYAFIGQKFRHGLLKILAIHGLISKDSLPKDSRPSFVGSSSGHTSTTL
Test: not given
Type: cell membranes, Membrane
Conditions: cho-k1

SMILES | IC50
CCN1CC(CCN2CCOCC2)C(c2ccccc2)(c2ccccc2)C1=O (configuration not stated) [DOXAPRAM] | Not Active
Cn1c(=O)c2c(ncn2CC2OCCO2)n(C)c1=O [DOXOFYLLINE] | Not Active
C[C@]12CC[C@@H]3c4ccc(OC(=O)c5ccccc5)cc4CC[C@H]3[C@@H]1CC[C@@H]2O [ESTRADIOL BENZOATE] | Not Active
C[C@]12CC[C@@H]3c4ccc(O)cc4CC[C@H]3[C@@H]1CC[C@@H]2O [ESTRADIOL] | Not Active
CC[C@@H](CO)NCCN[C@@H](CC)CO [ETHAMBUTOL] | Not Active
NC(=O)NO [HYDROXYUREA] | Not Active
Nc1ccn([C@@H]2CS[C@H](CO)O2)c(=O)n1 [LAMIVUDINE] | Not Active
COc1ccc2cc([C@H](C)C(=O)O)ccc2c1 [NAPROXEN] | Not Active

Biological target: Cytochrome P450 2E1 (Homo sapiens, UniProt P05181); note: in other assays of this panel Not Active means under 50% inhibition at 10 µM
Sequence (P05181 whole entry): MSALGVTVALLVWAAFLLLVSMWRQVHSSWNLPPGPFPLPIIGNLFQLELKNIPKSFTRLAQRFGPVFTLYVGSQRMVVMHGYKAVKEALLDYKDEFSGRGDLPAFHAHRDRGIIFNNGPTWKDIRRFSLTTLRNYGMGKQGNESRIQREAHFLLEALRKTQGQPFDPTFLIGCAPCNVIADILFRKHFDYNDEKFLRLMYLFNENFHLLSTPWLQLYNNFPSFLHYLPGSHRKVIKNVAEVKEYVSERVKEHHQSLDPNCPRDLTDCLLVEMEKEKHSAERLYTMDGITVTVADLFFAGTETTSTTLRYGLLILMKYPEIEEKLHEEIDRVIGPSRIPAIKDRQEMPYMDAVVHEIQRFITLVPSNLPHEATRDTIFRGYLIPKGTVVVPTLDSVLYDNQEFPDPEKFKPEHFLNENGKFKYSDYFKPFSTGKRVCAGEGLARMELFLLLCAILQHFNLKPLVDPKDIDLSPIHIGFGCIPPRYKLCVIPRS
Test: not given
Conditions: bti-tn-5b1-4

SMILES | IC50 | Ki
CCN1CC(CCN2CCOCC2)C(c2ccccc2)(c2ccccc2)C1=O (configuration not stated) [DOXAPRAM] | Not Active | Not Active
Cn1c(=O)c2c(ncn2CC2OCCO2)n(C)c1=O [DOXOFYLLINE] | Not Active | Not Active
C[C@]12CC[C@@H]3c4ccc(OC(=O)c5ccccc5)cc4CC[C@H]3[C@@H]1CC[C@@H]2O [ESTRADIOL BENZOATE] | Not Active | Not Active
C[C@]12CC[C@@H]3c4ccc(O)cc4CC[C@H]3[C@@H]1CC[C@@H]2O [ESTRADIOL] | Not Active | Not Active
CC[C@@H](CO)NCCN[C@@H](CC)CO [ETHAMBUTOL] | Not Active | Not Active
Nc1ccn([C@@H]2CS[C@H](CO)O2)c(=O)n1 [LAMIVUDINE] | Not Active | Not Active
